Source: ChEMBL document CHEMBL1949526, “Cyclic hydroxyamidines as amide isosteres: discovery of oxadiazolines and oxadiazines as potent and highly efficacious γ-secretase modulators in vivo” (J Med Chem, 2012)

Experiments:
[1] = Cmax in rat at 10 mg/kg, po; type: ADME, organism-based; parameters: dose 10 mg/kg, route oral; settings: in vivo
[2] = molecular target: Cytochrome P450 2D6 (Homo sapiens, UniProt P10635); experiment: Inhibition of human CYP2D6; type: ADME
[3] = molecular target: Gamma-secretase; experiment: Modulation of gamma-secretase-mediated cleavage of human APP Swedish and London mutation expressed in HEK293 cells assessed as reduction of total amyloid beta level after 5 hrs by sandwich immunoassay; type: cell-based
[4] = Volume of distribution at steady state in dog at 3 mg/kg, iv; type: ADME, organism-based, Canis lupus familiaris; parameters: dose 3 mg/kg, route intravenous; settings: in vivo, read-out: Vdss
[5] = Permeability from apical to basolateral side of human Caco2 cells; type: ADME, cell-based; settings: Caco-2, read-out: permeability
[6] = Half life in dog at 3 mg/kg, iv; type: ADME, organism-based, Canis lupus familiaris; parameters: dose 3 mg/kg, route intravenous; settings: in vivo
[7] = Volume of distribution at steady state in rat at 3 mg/kg, iv; type: ADME, organism-based; parameters: dose 3 mg/kg, route intravenous; settings: in vivo, read-out: Vdss
[8] = molecular target: Gamma-secretase; experiment: Modulation of gamma-secretase-mediated cleavage of human APP Swedish and London mutation expressed in HEK293 cells assessed as inhibition of amyloid beta40 production after 5 hrs by sandwich immunoassay; type: cell-based
[9] = test system: Canis familiaris; experiment: AUC in dog at 10 mg/kg, po; type: ADME, organism-based, Canis lupus familiaris, Plasma; parameters: dose 10 mg/kg, route oral; settings: in vivo
[10] = molecular target: Cytochrome P450 3A4 (Homo sapiens, UniProt P08684); experiment: Inhibition of human CYP3A4; type: ADME
[11] = test system: Rattus norvegicus; experiment: AUC in rat at 10 mg/kg, po; type: ADME, organism-based, Plasma; parameters: dose 10 mg/kg, route oral; settings: in vivo
[12] = Efflux ratio of permeability from basolateral to apical side over apical to basolateral side in human Caco2 cells; type: ADME, cell-based; settings: Caco-2
[13] = AUC in monkey at 10 mg/kg, po; type: ADME, organism-based, Macaca mulatta; parameters: dose 10 mg/kg, route oral; settings: rhesus monkey, plasma
[14] = test system: Rattus norvegicus; experiment: Oral bioavailability in rat at 10 mg/kg; type: ADME, organism-based; settings: in vivo
[15] = Half life in monkey at 3 mg/kg, iv; type: ADME, organism-based, Macaca mulatta; parameters: dose 3 mg/kg, route intravenous; settings: rhesus monkey, in vivo
[16] = Half life in rat at 3 mg/kg, iv; type: ADME, organism-based; parameters: dose 3 mg/kg, route intravenous; settings: in vivo
[17] = molecular target: Gamma-secretase; experiment: Modulation of gamma-secretase-mediated cleavage of human APP Swedish and London mutation expressed in HEK293 cells assessed as inhibition of amyloid beta42 production after 5 hrs by sandwich immunoassay; type: cell-based
[18] = test system: Rattus norvegicus; experiment: Antialzheimer activity in rat assessed as reduction in amyloid beta42 level in CSF at 3 mg/kg, po after 3 hrs; type: functional; parameters: scale not given: the % may be the effect or the level left
[19] = species: Homo sapiens; experiment: Cardiotoxicity in human assessed as QT prolongation; type: toxicity, organism-based; settings: in vivo
[20] = Drug level in rat brain at 10 mg/kg, po after 3 hrs; type: ADME, organism-based; parameters: dose 10 mg/kg, route oral; settings: read-out: Drug uptake
[21] = molecular target: Gamma-secretase (Homo sapiens) (UniProt Q96BI3+Q9NZ42+Q8WW43+P49768+Q92542+P49810); experiment: Modulation of gamma-secretase-mediated cleavage of human APP Swedish and London mutation expressed in HEK293 cells assessed as reduction of total amyloid beta/amyloid beta42 ratio after 5 hrs by sandwich immunoassay; type: cell-based
[22] = species: Canis familiaris; experiment: Cardiotoxicity in dog assessed as effect on electrocardiographic QTc interval at compound concentration required for pharmacological effect; type: toxicity, organism-based, Canis lupus familiaris; settings: in vivo
[23] = test system: Rattus norvegicus; experiment: Antialzheimer activity in po dosed rat assessed as reduction in amyloid beta42 level in CSF after 3 hrs; type: functional, organism-based
[24] = Cmax in dog at 10 mg/kg, po; type: ADME, organism-based, Canis lupus familiaris; parameters: dose 10 mg/kg, route oral; settings: in vivo
[25] = test system: Rattus norvegicus; experiment: Antialzheimer activity in rat assessed as reduction in amyloid beta42 level in CSF at 10 mg/kg, po after 3 hrs; type: functional; parameters: scale not given: the % may be the effect or the level left
[26] = molecular target: T1, Nuclear receptor subfamily 1 group I member 2 (Homo sapiens, UniProt O75469); experiment: Induction of human PXR
T1 sequence (O75469 whole entry): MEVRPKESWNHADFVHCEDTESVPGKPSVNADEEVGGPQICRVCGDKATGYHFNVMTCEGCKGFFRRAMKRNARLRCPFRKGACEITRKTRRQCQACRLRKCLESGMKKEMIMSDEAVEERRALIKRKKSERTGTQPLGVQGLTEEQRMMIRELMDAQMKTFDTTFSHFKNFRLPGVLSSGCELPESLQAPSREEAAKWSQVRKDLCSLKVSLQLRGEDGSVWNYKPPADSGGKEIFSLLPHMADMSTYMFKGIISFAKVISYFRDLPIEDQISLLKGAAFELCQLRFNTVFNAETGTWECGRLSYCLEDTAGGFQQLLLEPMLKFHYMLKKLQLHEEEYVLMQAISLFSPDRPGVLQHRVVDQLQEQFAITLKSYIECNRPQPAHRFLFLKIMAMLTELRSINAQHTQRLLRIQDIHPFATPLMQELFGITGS

[27] = Oral bioavailability in monkey at 10 mg/kg; type: ADME, organism-based, Macaca mulatta; settings: rhesus monkey, in vivo
[28] = molecular target: Cytochrome P450 2C9 (Homo sapiens, UniProt P11712); experiment: Inhibition of human CYP2C9; type: ADME
[29] = molecular target: Voltage-gated inwardly rectifying potassium channel KCNH2 (Homo sapiens, UniProt Q12809); experiment: Inhibition of human ERG by cell based voltage clamp assay
[30] = Cmax in monkey at 10 mg/kg, po; type: ADME, organism-based, Macaca mulatta; parameters: dose 10 mg/kg, route oral; settings: rhesus monkey, in vivo
[31] = Drug level in rat brain at 3 mg/kg, po after 3 hrs; type: ADME, organism-based; parameters: dose 3 mg/kg, route oral; settings: read-out: Drug uptake
[32] = Volume of distribution at steady state in monkey at 3 mg/kg, iv; type: ADME, organism-based, Macaca mulatta; parameters: dose 3 mg/kg, route intravenous; settings: rhesus monkey, in vivo, read-out: Vdss
[33] = Clearance in monkey at 3 mg/kg, iv; type: ADME, organism-based, Macaca mulatta; parameters: dose 3 mg/kg, route intravenous; settings: rhesus monkey, in vivo
[34] = Dissociation constant, pKa of the compound; type: physicochemical
[35] = test system: Canis familiaris; experiment: Oral bioavailability in dog at 10 mg/kg; type: ADME, organism-based, Canis lupus familiaris; settings: in vivo

Sequence of Cytochrome P450 2C9 (P11712 whole entry): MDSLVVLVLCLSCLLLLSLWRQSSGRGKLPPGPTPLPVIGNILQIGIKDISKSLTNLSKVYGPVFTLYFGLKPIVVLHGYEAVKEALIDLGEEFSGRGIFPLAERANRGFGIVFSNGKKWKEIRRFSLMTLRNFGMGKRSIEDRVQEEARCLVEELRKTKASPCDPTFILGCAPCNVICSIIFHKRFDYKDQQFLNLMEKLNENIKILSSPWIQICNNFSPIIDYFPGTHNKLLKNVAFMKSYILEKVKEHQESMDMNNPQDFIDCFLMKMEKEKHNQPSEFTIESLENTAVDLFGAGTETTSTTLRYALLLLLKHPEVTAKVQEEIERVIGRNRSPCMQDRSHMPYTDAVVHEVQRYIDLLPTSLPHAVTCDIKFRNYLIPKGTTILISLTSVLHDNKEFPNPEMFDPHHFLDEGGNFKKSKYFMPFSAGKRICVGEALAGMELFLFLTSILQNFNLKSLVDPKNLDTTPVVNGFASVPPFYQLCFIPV
Sequence of Cytochrome P450 2D6 (P10635 whole entry): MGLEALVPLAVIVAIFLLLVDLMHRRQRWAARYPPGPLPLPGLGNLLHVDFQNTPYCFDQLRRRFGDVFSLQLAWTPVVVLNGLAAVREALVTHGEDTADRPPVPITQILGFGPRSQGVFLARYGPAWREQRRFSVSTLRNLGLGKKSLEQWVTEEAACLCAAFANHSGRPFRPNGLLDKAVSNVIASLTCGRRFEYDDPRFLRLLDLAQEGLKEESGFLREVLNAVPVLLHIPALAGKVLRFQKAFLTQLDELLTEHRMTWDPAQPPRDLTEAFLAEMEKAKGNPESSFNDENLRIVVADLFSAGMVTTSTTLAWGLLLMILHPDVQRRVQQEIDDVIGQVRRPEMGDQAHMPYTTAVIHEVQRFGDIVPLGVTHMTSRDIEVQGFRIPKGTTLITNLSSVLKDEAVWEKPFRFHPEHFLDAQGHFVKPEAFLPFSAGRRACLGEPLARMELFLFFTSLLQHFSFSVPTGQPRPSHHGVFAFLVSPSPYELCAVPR
Sequence of Cytochrome P450 3A4 (P08684 whole entry): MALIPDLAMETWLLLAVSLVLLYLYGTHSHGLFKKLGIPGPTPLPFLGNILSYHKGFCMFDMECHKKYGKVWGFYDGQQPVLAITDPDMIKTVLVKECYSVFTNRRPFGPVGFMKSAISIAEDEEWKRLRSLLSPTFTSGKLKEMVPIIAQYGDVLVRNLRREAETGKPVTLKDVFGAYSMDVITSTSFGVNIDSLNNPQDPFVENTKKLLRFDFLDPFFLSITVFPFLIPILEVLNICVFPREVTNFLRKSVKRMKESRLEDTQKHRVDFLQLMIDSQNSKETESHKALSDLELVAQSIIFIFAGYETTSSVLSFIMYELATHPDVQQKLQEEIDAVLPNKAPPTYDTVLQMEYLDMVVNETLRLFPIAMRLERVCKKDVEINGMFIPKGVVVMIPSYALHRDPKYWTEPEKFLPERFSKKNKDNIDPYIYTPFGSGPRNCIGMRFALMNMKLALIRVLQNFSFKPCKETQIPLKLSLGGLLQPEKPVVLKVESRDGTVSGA
Sequence of Voltage-gated inwardly rectifying potassium channel KCNH2 (Q12809 whole entry): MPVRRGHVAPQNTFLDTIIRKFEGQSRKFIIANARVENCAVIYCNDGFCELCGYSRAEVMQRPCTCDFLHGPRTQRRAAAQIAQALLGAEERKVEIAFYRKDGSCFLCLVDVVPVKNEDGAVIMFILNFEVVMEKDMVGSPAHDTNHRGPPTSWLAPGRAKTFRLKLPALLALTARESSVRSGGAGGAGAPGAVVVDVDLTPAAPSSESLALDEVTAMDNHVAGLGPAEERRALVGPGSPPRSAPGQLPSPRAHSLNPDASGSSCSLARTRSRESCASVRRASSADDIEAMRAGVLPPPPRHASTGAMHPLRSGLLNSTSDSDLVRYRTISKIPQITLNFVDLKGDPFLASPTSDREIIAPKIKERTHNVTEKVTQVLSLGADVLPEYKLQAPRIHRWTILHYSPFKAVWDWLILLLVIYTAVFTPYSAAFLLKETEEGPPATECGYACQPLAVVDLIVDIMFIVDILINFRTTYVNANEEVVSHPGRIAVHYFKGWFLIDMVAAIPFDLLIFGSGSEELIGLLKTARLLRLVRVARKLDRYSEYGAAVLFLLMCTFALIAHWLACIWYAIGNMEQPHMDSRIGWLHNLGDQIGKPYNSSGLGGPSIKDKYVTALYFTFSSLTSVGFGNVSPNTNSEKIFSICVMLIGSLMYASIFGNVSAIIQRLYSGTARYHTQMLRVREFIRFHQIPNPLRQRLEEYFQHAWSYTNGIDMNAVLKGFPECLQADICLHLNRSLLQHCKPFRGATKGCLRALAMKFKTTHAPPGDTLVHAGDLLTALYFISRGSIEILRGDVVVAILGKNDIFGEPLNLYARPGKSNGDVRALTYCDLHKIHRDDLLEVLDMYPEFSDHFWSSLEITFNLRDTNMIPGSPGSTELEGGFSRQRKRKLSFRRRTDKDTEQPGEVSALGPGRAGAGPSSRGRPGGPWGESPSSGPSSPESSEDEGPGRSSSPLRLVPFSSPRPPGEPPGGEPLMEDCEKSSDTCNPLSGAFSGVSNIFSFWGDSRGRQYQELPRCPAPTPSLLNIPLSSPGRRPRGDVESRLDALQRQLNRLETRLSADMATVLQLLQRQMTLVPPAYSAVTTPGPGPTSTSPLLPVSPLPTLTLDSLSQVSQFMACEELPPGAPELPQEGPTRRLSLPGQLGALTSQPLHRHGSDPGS

Cmax [1]: 4.9 µM
inhibition (INH) [2]: Not Active
IC50 [3]: 13.7 µM
Vd [4]: 2.2 L/kg
Papp A→B [5]: 34.6 ×10⁻⁶ cm/s
half-life [6]: 102 min
Vd [7]: 1.6 L/kg
IC50 [8]: 267 nM
AUC [9]: 27 µM·h
inhibition (INH) [10]: Not Active
AUC [11]: 19 µM·h
efflux ratio [12]: 0.6
AUC [13]: 30 µM·h
F [14]: 78%
half-life [15]: 120 min
half-life [16]: 150 min
IC50 [17]: 58 nM
concentration at 3 h [20]: 5 µM
Ratio IC50 [21]: 237
Cmax [24]: 5.3 µM
Activity [26]: Not Active
bioavailability [27]: 57%
inhibition (INH) [28]: Not Active
Cmax [30]: 5.6 µM
concentration at 3 h [31]: 800 nM
Vd [32]: 1 L/kg
clearance [33]: 7.3 mL/min/kg
pKa [34]: 6.7
F [35]: 69%
Compound: COc1cc(/C=C2\CCCN3C2=NOC3(C)c2ccc(F)cc2)ccc1-n1cnc(C)c1 (single isomer, unassigned)
Activity [18]: 30%
Activity [19]: Toxic
Activity [22]: Non-toxic
Activity [23]: Dose-dependent effect
Activity [25]: 51%
IC50 [29]: 740 nM
